The numbers were not newly measured in US9498424B2, “Active mixtures of acylated oligopeptides and troxerutin” (Symrise AG, priority 2013, dated 2016), which cites them from elsewhere.

Structures are written as SMILES.

This series deals with mice.

As for `C[C@@H]1O[C@@H](OC[C@H]2O[C@@H](Oc3c(-c4ccc(OCCO)c(OCCO)c4)oc4cc(OCCO)cc(O)c4c3=O)[C@H](O)[C@@H](O)[C@@H]2O)[C@H](O)[C@H](O)[C@H]1O` [Troxerutin], the CNS insulin resistance result is on record as “reverse CNS insulin resistance” and the “reactive oxygen species induced by a high-cholesterol diet” value is listed as “reduce reactive oxygen species”.
